Source: patent publication US20140072654A1, “CANCER WITH METABOLIC THERAPY AND HYPERBARIC OXYGEN” (priority 2011, published 2014)

What was measured:
VM-M3 cells = type: cell-based, mouse; conditions: 5 mM βHB, 24, 48, 72 and 96 hrs
Protocol: Cell proliferation rate was measured using the MTT Cell Proliferation Assay (ATCC). Cells were plated onto a 96 well plate and grown to desired density. […] In proliferating cells, MTT is reduced to purple formazan which absorbs light at 490-520 nm and whose excitation can be measured using standard fluorescent microscopy and spectrophotometry. Rapidly dividing cells reduce MTT at very high rates, indicating their rate of proliferation. Cell proliferation can also be measured with Ki67 immunohistochemistry staining, cell viability can also be evaluated with the LDH Cytotoxicity Assay (Cayman Chemical).
Cell viability was measured using the LIVE/DEAD Viability/Cytotoxicity Kit for Mammalian Cells (Invitrogen). Cells were grown to desired density on a coverslip and washed with Dulbecco's phosphate-buffered saline (D-PBS). […] The two-color fluorescence assay contains two probes which specifically label live or dead cells. […] Calcein produces an intense green fluorescence with an excitation/emission of 495/515 nm. Ethidium homodimer-1 (Ethd-1) enters cells with damaged membranes and binds to nucleic acid. Ethd-1 bound to DNA produces a red fluorescence in dead cells with an excitation/emission of 495/635 nm. Live and dead cells were identified and quantified using standard fluorescent microscopy. […]

[1] = in vivo; cited from earlier work

Molecule | proliferation (VM-M3 cells) | levels of ketones produced by supplementation [1]
CC(O)CC(=O)O (stereo not drawn) [βHB, β-hydroxybutyrate] | significantly decreased | 
MCT oil |  | < 500 µM
